This is an account of results in ChEMBL document CHEMBL1275271, “QSAR and docking studies of novel antileishmanial diaryl sulfides and sulfonamides” (Eur J Med Chem, 2010).

Data set [1] in a line: Octanol-water partition coefficient, log P of the compound.
Data set [2] in a line: Toxicity in po dosed mouse. Particulars: in vivo.
A further data set in a line: in vivo. Particulars: rat, po.
For a further data set, the system named is Leishmania donovani. Kind of data set: Antileishmanial activity against Leishmania donovani. Type of data set: functional, organism-based.

As a reminder, the logP is a log measure of how a compound divides between an organic and an aqueous phase. A high value points to a more lipophilic compound. As a reminder, the LD50 is the dose expected to kill half of the subjects tested. With `O=[N+]([O-])c1cc([N+](=O)[O-])c(S(=O)(=O)Nc2cccc(F)c2)c(C(F)(F)F)c1`, in data set [1], the logP came to 4.39. Moreover, the LD50 in data set [2] turned out to be 880 mg/kg; in “in vivo”, 620 mg/kg.

Broadly, the IC50 is the midpoint of a concentration-inhibition curve. In the data set with Leishmania donovani, `O=[N+]([O-])c1ccc(Oc2c(Cl)cccc2Cl)c([N+](=O)[O-])c1Oc1c(Cl)cccc1Cl` gave an IC50 of 80 µM.

As for `N#Cc1cc([N+](=O)[O-])c(S(=O)(=O)Nc2cccc(F)c2)c([N+](=O)[O-])c1`, the logP in data set [1] is 2.51. Also, the LD50 stood at 1300 mg/kg in data set [2] and 1200 mg/kg in “in vivo”.

The molecule `CCCCCCN(CCCCCC)c1c([N+](=O)[O-])cc(S(N)(=O)=O)cc1[N+](=O)[O-]` had an IC50 with Leishmania donovani of 12 µM.

As to `O=C1NC(=O)c2cc([N+](=O)[O-])c(Sc3c(Cl)cccc3Cl)cc21`, the midpoint of inhibition in the data set with Leishmania donovani, the IC50, lay at 60 µM.

Regarding `Cc1cc(S(=O)(=O)c2c([N+](=O)[O-])cc(C#N)cc2[N+](=O)[O-])c(Cl)cc1Cl`, the logP in data set [1] amounted to 4.08. Besides, the results for the LD50 (in data set [2]; in the data set “in vivo”) were 1100 mg/kg and 1000 mg/kg, respectively.

The molecule `Cc1cc(Sc2ncc(C(F)(F)F)cc2[N+](=O)[O-])c(Cl)cc1Cl` showed an IC50 in the data set with Leishmania donovani of 98.2 µM.

On to `CCCN(CCC)c1c([N+](=O)[O-])cc(C(N)=O)cc1[N+](=O)[O-]`, for which half-maximal inhibition in the data set on Leishmania donovani (IC50) was put at 32 µM.

In data set [1], `Cc1cc(NS(=O)(=O)c2c([N+](=O)[O-])cc([N+](=O)[O-])cc2C(F)(F)F)c(Cl)cc1Cl` gave a logP of 6.44. The values for the LD50 (in data set [2]; in “in vivo”) were 650 mg/kg and 350 mg/kg, respectively.

`CCCN(CCC)c1c([N+](=O)[O-])cc(Sc2ccc(OC)cc2)cc1[N+](=O)[O-]`: the logP in data set [1] was found to be 6.53. Moreover, the median lethal dose (LD50) was determined as 1600 mg/kg in data set [2] and 1900 mg/kg in the data set “in vivo”.

In turn, `Cc1cc(Sc2ccc(C(F)(F)F)cc2[N+](=O)[O-])c(Cl)cc1Cl` had an IC50 in the data set on Leishmania donovani of 59 µM.

As to `CCCN(CCC)c1c([N+](=O)[O-])cc(S(N)(=O)=O)cc1[N+](=O)[O-]` [ORYZALIN], the logP in data set [1] amounted to 3.38. The 50% lethal dose (LD50) in data set [2] is 1600 mg/kg; in “in vivo”, 1400 mg/kg.

Take `Cc1cc(S(=O)(=O)c2c([N+](=O)[O-])cc(C(F)(F)F)cc2[N+](=O)[O-])c(Cl)cc1Cl`: the logP in data set [1] came to 5.72. Further, the values for the median lethal dose (LD50) (in data set [2]; in the data set “in vivo”) were 1800 mg/kg and 1200 mg/kg, respectively.

In the case of `CCCN(CCC)c1c([N+](=O)[O-])cc(Sc2cc(C)c(Cl)cc2Cl)cc1[N+](=O)[O-]`, in data set [1], the logP worked out at 8.66. Moreover, the LD50 amounted to 1800 mg/kg in data set [2] and 1600 mg/kg in the data set “in vivo”.

`CCCN(CCC)c1c([N+](=O)[O-])cc(S(=O)(=O)Nc2ccc(OC)cc2)cc1[N+](=O)[O-]` had an IC50 in the data set on Leishmania donovani of 76 µM.

In the data set on Leishmania donovani, `Cc1nc(Sc2nccn2-c2cc(Cl)ccc2Cl)c(C(=O)O)cc1C#N` had an IC50 of 21 µM.

In data set [1], `O=[N+]([O-])c1cc(C(F)(F)F)cc([N+](=O)[O-])c1Sc1ccc(Cl)cc1Cl` registered a logP of 6.73. Further, the LD50 in data set [2] was 780 mg/kg; in “in vivo”, 600 mg/kg.

In data set [1], `COc1ccc(Sc2c([N+](=O)[O-])cc(C#N)cc2[N+](=O)[O-])cc1` showed a log partition coefficient (logP) of 3.56. The results for the LD50 (in data set [2]; in the data set “in vivo”) were 1100 mg/kg and 1400 mg/kg, respectively. In the data set with Leishmania donovani, this molecule showed an IC50 of 0.67 µM.
